The values that follow come from article PMC11877508, “Anti-inflammatory and Hepatoprotective Iridoid Glycosides from the Roots of Gomphandra mollis” (Journal of Natural Products, 2025).

Series [1] in a line: RAW264.7 cell viability (MTT) alongside the NO assay. Particulars: RAW264.7 cells.
Method: (§1) RAW264.7 cells were cultured in Dulbecco’s modified essential medium (DMEM, Gibco). The cells were incubated at 37 °C in DMEM with 10% fetal bovine serum (FBS, Gibco), penicillin (100 U/mL, Gibco), and streptomycin sulfate (100 μg/mL, Gibco) under a humidified atmosphere containing 5% CO2. Briefly, 2 × 10^4 cells/well treated for 24 h with vehicle or compounds were examined for cell viability based on the MTT (3-(4,5-dimethylthiazol-2-yl)-2,5-diphenyltetrazolium bromide assay) method.[60] Survival of macrophage cells after treatment with compounds was measured at a wavelength of 570 nm.
(§2) RAW264.7 cells (2 × 10^4 cells/well) were stimulated with or without 1 μg/mL lipopolysaccharide (LPS, Sigma) for 24 h in the presence or absence of the test compounds at different concentrations. Afterward, 100 μL of the cell culture supernatant was mixed with 100 μL of Griess reagent.[61] The remaining cells from the Griess assay were then utilized to determine their viability by using the MTT colorimetric assay described above.
Series [2] deals with NO production in LPS-stimulated RAW264.7 cells. The series is described as follows: Inhibition of nitric oxide (NO) production in LPS-stimulated RAW264.7 cells (Griess reagent). The class given is cell-based. Particulars: 1 μg/mL LPS, read-out: IC50 value, NO production inhibitory effect. A general note: The Griess reaction detects nitrite, a stable product of nitric oxide.
Method: as §1, §2
A short description of series [3]: HepG2 cytotoxicity test (MTT, 48 h). The following applies: human, HepG2 cells.
Method: Human hepatocellular carcinoma HepG2 cells were cultured in DMEM (Gibco) supplemented with 10% FBS (Gibco) and 1% antibiotic–antimycotic (Gibco, 15240062). Once cells reached approximately 80% confluence, they were washed with PBS and detached using trypsin-EDTA (Gibco, 25200072) at 37 °C for 5 min. Cells were then seeded into 96-well plates at a density of 3 × 10^4 cells per well (100 μL/well) and incubated for 24 h at 37 °C in a humidified atmosphere with 5% CO2.
After the initial incubation, the medium was replaced with 100 μL of fresh medium containing the test compounds, and the cells were incubated for an additional 48 h. Cell viability was determined using the MTT assay, following standard protocols with untreated cells serving as the control. The percentage of cell viability was calculated using the following formula: % viability = [(number of viable cells)/(total cells)] × 100. The concentration of the test compounds was set at 80 μM for the screening.

Each structure is given as a SMILES string. Where two headings read alike, the source gives them in different places. Some results are limits rather than exact numbers.

Regarding `COC(=O)C1=CO[C@@H](O[C@@H]2O[C@H](CO[C@H]3O[C@H](CO)[C@H](O)[C@H](O)[C@H]3O)[C@@H](O)[C@H](O)[C@H]2O)[C@@H]2[C@@H](C)[C@@H](O)C[C@H]12` [Compound 1, loganin 6′-O-α-D-galactopyranoside], the viability – broadly, a read-out of living cells in per cent, often relative to untreated cells – at 48 h, 80 µM in series [1] is 97.7 ± 2.3%. In addition, the IC50 (in general, the midpoint of a concentration-inhibition curve) came out at 9.18 ± 0.3 µM in series [2] (24 h) and 9.19 µM in series [2] (Mus musculus, RAW264.7, 24 h).
Regarding `C=C[C@H]1[C@H](O[C@@H]2O[C@H](CO)C(O)[C@H](O)[C@H]2O)OC=C(C(=O)O[C@H]2C[C@@H]3CCOC(=O)[C@@H]3[C@H]2C)[C@H]1CC(OC)OC` (stereo partly drawn) [Compound 3, gomphandranoside C], the viability at 48 h, 80 µM is 103 ± 3.5% in series [1] and over 80% in series [3]. In addition, the IC50 in series [2] (Mus musculus, RAW264.7, 24 h) worked out at 23.8 ± 2.6 µM.
On to `C=C[C@H]1[C@H](O[C@@H]2O[C@H](CO)[C@@H](O)[C@H](O)[C@H]2O)OC=C(C(=O)O[C@H]2C[C@@H]3C(C(=O)OC)=CO[C@@H](O[C@@H]4O[C@H](CO)[C@@H](O)[C@H](O)[C@H]4O)[C@@H]3[C@H]2C)[C@H]1C[C@H]1OC[C@H]2O[C@H](OC[C@H]3O[C@@](CO)(O[C@H]4O[C@H](CO)[C@@H](O)[C@H](O)[C@H]4O)[C@@H](O)[C@@H]3O)[C@H](O)[C@@H](O)[C@H]2O1` [Compound 4, gomphandranoside D], for which the viability at 48 h, 80 µM in series [1] is 95.1 ± 2.8%; in series [3] it was over 80%. Also, in series [2] (Mus musculus, RAW264.7, 24 h), the IC50 is 19.5 ± 0.3 µM.
Take `C=C[C@H]1[C@H](O[C@@H]2O[C@H](CO)[C@@H](O)[C@H](O)[C@H]2O)OC=C(C(=O)O[C@H]2C[C@@H]3C(C(=O)OC)=CO[C@@H](O[C@@H]4O[C@H](CO)[C@@H](O)[C@H](O)[C@H]4O)[C@@H]3[C@H]2C)[C@H]1C[C@H]1OC[C@H]2O[C@H](OC[C@H]3O[C@](O)(CO)[C@@H](O)[C@@H]3O)[C@H](O)[C@@H](O)[C@H]2O1` [Compound 5, gomphandranoside E]: the viability at 48 h, 80 µM is 98.9 ± 3.1% in series [1] and over 80% in series [3]. Besides, the IC50 in series [2] (Mus musculus, RAW264.7, 24 h) is 17.7 ± 0.4 µM.
For `C=C[C@H]1[C@H](O[C@@H]2O[C@H](CO)[C@@H](O)[C@H](O)[C@H]2O)OC=C(C(=O)O[C@H]2C[C@@H]3C(C(=O)OC)=CO[C@@H](O[C@@H]4O[C@H](CO)[C@@H](O)[C@H](O)[C@H]4O)[C@@H]3[C@H]2C)[C@H]1C[C@@H]1O[C@@H]2[C@@H](O)[C@@H](OC[C@H]3O[C@@](CO)(O[C@H]4O[C@H](CO)[C@@H](O)[C@H](O)[C@H]4O)[C@@H](O)[C@@H]3O)O[C@H](CO)[C@@H]2O1` [Compound 6, gomphandranoside F], the values for the viability at 48 h, 80 µM in series [1] and in series [3] were 94.6 ± 4.5% and over 80%, respectively. The IC50 in series [2] (Mus musculus, RAW264.7, 24 h) was 20.2 ± 1.1 µM.
For `C=C[C@H]1[C@H](O[C@@H]2O[C@H](CO)[C@@H](O)[C@H](O)[C@H]2O)OC=C(C(=O)O[C@H]2C[C@@H]3CCOC(=O)[C@@H]3[C@H]2C)[C@H]1C[C@@H](O)O[C@@H](O)C[C@@H]1C(C(=O)O[C@H]2C[C@@H]3CCOC(=O)[C@@H]3[C@H]2C)=CO[C@@H](O[C@@H]2O[C@H](CO)[C@@H](O)[C@H](O)[C@H]2O)[C@@H]1C=C` [Compound 7, gomphandranoside G], in that order: 95.3 ± 2.4%, over 80% and 14.7 ± 0.9 µM.
As to `C=C[C@@H]1[C@H](O[C@@H]2O[C@H](CO)[C@@H](O)[C@H](O)[C@H]2O)OC=C(C(=O)O[C@H]2C[C@@H]3C(C(=O)OC)=CO[C@H](O[C@@H]4O[C@H](CO)[C@@H](O)[C@H](O)[C@H]4O)[C@@H]3[C@H]2C)[C@@H]1/C(C=O)=C\C[C@H]1C(C(=O)O[C@H]2C[C@@H]3CCOC(=O)[C@@H]3[C@H]2C)=CO[C@@H](O[C@@H]2O[C@H](CO)[C@@H](O)[C@H](O)[C@H]2O)[C@H]1C=C` [Compound 8, gomphandranoside H], in series [1], the viability at 48 h, 80 µM turned out to be 100 ± 2.5%. Further, the IC50 in series [2] (Mus musculus, RAW264.7, 24 h) is 14.4 ± 1.2 µM.
Consider `C=C[C@H]1[C@H](O[C@@H]2O[C@H](CO)[C@@H](O)[C@H](O)[C@H]2O)OC=C(C(=O)O[C@H]2C[C@@H]3C(C(=O)OC)=CO[C@@H](O[C@@H]4O[C@H](CO)[C@@H](O)[C@H](O)[C@H]4O)[C@@H]3[C@H]2C)[C@H]1C1=CO[C@H]2C[C@@H]1C[C@@H]1C(C(=O)O[C@H]3C[C@@H]4C(C(=O)OC)=CO[C@@H](O[C@@H]5O[C@H](CO)[C@@H](O)[C@H](O)[C@H]5O)[C@@H]4[C@H]3C)=CO[C@@H](O[C@@H]3O[C@H](CO)[C@@H](O)[C@H](O)[C@H]3O)[C@H]21` [Compound 9, gomphandranoside I], for which the viability at 48 h, 80 µM in series [1] was 98.3 ± 2.6%; in series [3], over 80%. Further, in series [2] (Mus musculus, RAW264.7, 24 h), the IC50 was 12.9 ± 0.5 µM.
For `C=C[C@H]1[C@H](O[C@@H]2O[C@H](CO)[C@@H](O)[C@H](O)[C@H]2O)OC=C(C(=O)O[C@H]2C[C@@H]3C(C(=O)OC)=CO[C@@H](O[C@H]4O[C@H](CO)[C@@H](O)[C@H](O)[C@H]4O)[C@@H]3[C@H]2C)[C@H]1C1=COC[C@@H]2[C@H]3[C@@H](O[C@@H]4O[C@H](CO)[C@@H](O)[C@H](O)[C@H]4O)OC=C(C(=O)O[C@H]4C[C@@H]5C(C(=O)OC)=CO[C@@H](OC6O[C@H](CO)[C@@H](O)[C@H](O)[C@H]6O)[C@@H]5[C@H]4C)[C@H]3C[C@H]12` (stereo partly drawn) [Compound 10, gomphandranoside K], the viability at 48 h, 80 µM in series [1] was found to be 96.7 ± 1.5%. Further, the IC50 in series [2] (Mus musculus, RAW264.7, 24 h) amounted to 12.2 ± 1.1 µM.
Turning to `C=CC1C(CC(OC)OC)C(C(=O)O[C@H]2CC3C(C(=O)OC)=CO[C@@H](O[C@@H]4O[C@H](CO)[C@@H](O)[C@H](O)[C@H]4O)C3[C@H]2C)=CO[C@H]1O[C@@H]1O[C@H](CO)[C@@H](O)[C@H](O)[C@H]1O` (stereo partly drawn) [Compound 11, cantleyoside-dimethyl-acetal], the figures for the viability at 48 h, 80 µM in series [1] and in series [3] were 94.8 ± 3.7% and over 80%, respectively. Also, in series [2] (Mus musculus, RAW264.7, 24 h), the IC50 came to 26.2 ± 1.3 µM.
With `C=CC1C(CC=O)C(C(=O)O[C@H]2CC3C(C(=O)OC)=CO[C@@H](O[C@@H]4O[C@H](CO)[C@@H](O)[C@H](O)[C@H]4O)C3[C@H]2C)=CO[C@H]1O[C@@H]1O[C@H](CO)[C@@H](O)[C@H](O)[C@H]1O` (stereo partly drawn) [Compound 12, cantleyoside], the IC50 in series [2] (Mus musculus, RAW264.7, 24 h) amounted to 23.1 ± 1.7 µM.
With `C=C[C@H]1[C@H](O[C@@H]2O[C@H](CO)[C@@H](O)[C@H](O)[C@H]2O)OC=C(C(=O)O[C@H]2C[C@@H]3C(C(=O)OC)=CO[C@@H](O[C@@H]4O[C@H](CO)[C@@H](O)[C@H](O)[C@H]4O)[C@@H]3[C@H]2C)[C@H]1CC=O` [Compound 12, cantleyoside], the viability at 48 h, 80 µM was 93.9 ± 2.5% in series [1] and over 80% in series [3].
As for `C[C@@H]1C[C@H]2[C@@H]3CCC4=CC(=O)C=C[C@]4(C)[C@@]3(F)[C@@H](O)C[C@]2(C)[C@@]1(O)C(=O)CO` [dexamethasone, reference compound], in series [1], the viability at 48 h, 20 µM came out at 96.3 ± 2.6%. Besides, the IC50 in series [2] (Mus musculus, RAW264.7, 24 h) came out at 9.08 ± 0.5 µM.
